Assay results from patent US20100048617A1, “COMPOUNDS” (SmithKline Beecham Corp., priority 2006, published 2010).
Counter-ions that a name gives are not always drawn.

Biological target: T1, SCD (SCD-containing rat microsomes) (Rattus norvegicus, UniProt P07308)
T1 construct: SCD-containing rat microsomes (2 μg protein); from tissue
T1 sequence (P07308 1-358): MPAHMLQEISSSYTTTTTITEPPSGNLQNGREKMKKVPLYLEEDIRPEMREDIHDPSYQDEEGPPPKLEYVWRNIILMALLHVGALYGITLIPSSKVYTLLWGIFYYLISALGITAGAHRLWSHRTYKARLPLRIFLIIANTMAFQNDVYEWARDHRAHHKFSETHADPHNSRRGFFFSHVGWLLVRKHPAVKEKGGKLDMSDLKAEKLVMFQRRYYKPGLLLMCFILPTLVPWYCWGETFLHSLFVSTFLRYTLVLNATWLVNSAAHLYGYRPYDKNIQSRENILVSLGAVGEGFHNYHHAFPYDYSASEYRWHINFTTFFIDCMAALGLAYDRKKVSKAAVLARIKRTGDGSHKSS
Experiment: in vitro assay for SCD activity based on production of [3H]H2O from [9,10-3H] stearoyl Coenzyme A
Assay type: biochemical
Conditions: SCD-containing rat microsomes (2 μg protein), substrate 1 μM, 6 min incubation, 5 min preincubation with compound; read-out: average pIC50 value (converted)
Description: The compounds of the present invention may be analysed in vitro for SCD activity using an assay based on the production of [^3H]H2O, which is released during the enzyme-catalyzed generation of the monounsaturated fatty acyl CoA product. The assay is performed in a 96-well filtration plates. The titrated substrate used in the assay is the [9,10-^3H] stearoyl Coenzyme A. After incubation for 6 minutes of SCD-containing rat microsomes (2 μg protein) and substrate (1 μM), the labelled fatty acid acyl-CoA species and microsomes are absorbed with charcoal and separated from [^3H]H2O by centrifugation. The formation of [^3H]H2O is used as a measure of SCD activity. Compounds at concentrations starting at 10 μM to 0.1 nM or vehicle (DMSO) are preincubated for 5 minutes with the microsomes before addition of the substrate. The concentration-responses are fitted with sigmoidal curves to obtain IC50 values.

IC50	SMILES
3.16 to 10 µM	COc1ccc(Cl)cc1Cn1nc(C(=O)Nc2ccc3c(c2)CCNC3)cc1C [1-{[5-chloro-2-(methyloxy)phenyl]methyl}-5-methyl-N-(1,2,3,4-tetrahydro-6-isoquinolinyl)-1H-pyrazole-3-carboxamide hydrochloride]
> 10 µM	COc1ccc(OCC(C)C)c(Cn2nc(C(=O)Nc3ccc4c(c3)CCNC4)cc2C)c1 [5-methyl-1-({5-(methyloxy)-2-[(2-methylpropyl)oxy]phenyl}methyl)-N-(1,2,3,4-tetrahydro-6-isoquinolinyl)-1H-pyrazole-3-carboxamide hydrochloride]
